Results as given in US20120029187A1, “HALOALKYLSULFONANILIDE DERIVATIVE” (Nissan Chemical Industries, Ltd., priority 2009, published 2012).

Legend:
Assay type in all cases: in vivo
bulrush [1] = test: Test Example 2: herbicidal effects during the vegetation period under submerged conditions; details: treatment during the vegetation period under submerged conditions; dose 2.52 g/a
Procedure, shortened: (§1)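 Barnyardgrass, bulrush and ducksalad were co-sown in alluvial soil flooded to 4 cm and grown in a greenhouse at 25 to 30° C. At the 1- or 2-leaf stage, water-diluted emulsifiable concentrates went onto the water surface at set doses (g/a). Herbicidal effect was scored three weeks later on a graded scale.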

barnyardgrass [2] = test: as above; details: treatment during the vegetation period under submerged conditions; dose 2.52 g/a
Procedure, shortened: as §1

ducksalad [3] = test: as above; details: treatment during the vegetation period under submerged conditions; dose 2.52 g/a
Procedure, shortened: as §1

posumbu knotweed [4] = test: Test Example 3: herbicidal effects in soil treatment; details: dose 6.3 g/a
Procedure, shortened: (§2)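 Seeds were sown in sterilized diluvial soil and covered with about 1.5 cm of soil. Compounds, formulated as emulsifiable concentrates and diluted with water, were sprayed evenly over the soil surface at set doses in g/a. Herbicidal effect was scored on a rating scale three weeks later.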

Italian ryegrass [5] = test: as above; details: dose 6.3 g/a
Procedure, shortened: as §2

barnyardgrass [6] = test: as above; details: dose 6.3 g/a
Procedure, shortened: as §2

common lambsquater [7] = test: as above; details: dose 6.3 g/a
Procedure, shortened: as §2

wild oat [8] = test: as above; details: dose 6.3 g/a
Procedure, shortened: as §2

common ragweed [9] = test: as above; details: dose 6.3 g/a
Procedure, shortened: as §2

giant foxtail [10] = test: as above; details: dose 6.3 g/a
Procedure, shortened: as §2

velvetleaf [11] = test: as above; details: dose 6.3 g/a
Procedure, shortened: as §2

large crabgrass [12] = test: as above; details: dose 6.3 g/a
Procedure, shortened: as §2

common chickweed [13] = test: as above; details: dose 6.3 g/a
Procedure, shortened: as §2

redroot pigweed [14] = test: as above; details: dose 6.3 g/a
Procedure, shortened: as §2

water foxtail [15] = test: as above; details: dose 6.3 g/a
Procedure, shortened: as §2

posumbu knotweed [16] = test: Test Example 4: herbicidal effect in foliage treatment; details: dose 6.3 g/a, three weeks after application
Procedure, shortened: (§3)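 Weeds and crops sown in sterilized diluvial soil under ~1.5 cm cover and grown in greenhouse at 25 to 30° C. At 14 days, water-diluted emulsifiable concentrate sprayed onto foliage at set doses (g/a); herbicidal effect scored on a rating scale three weeks after application.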

Italian ryegrass [17] = test: as above; details: dose 6.3 g/a, three weeks after application
Procedure, shortened: as §3

barnyardgrass [18] = test: as above; details: dose 6.3 g/a, three weeks after application
Procedure, shortened: as §3

common lambsquater [19] = test: as above; details: dose 6.3 g/a, three weeks after application
Procedure, shortened: as §3

wild oat [20] = test: as above; details: dose 6.3 g/a, three weeks after application
Procedure, shortened: as §3

common ragweed [21] = test: as above; details: dose 6.3 g/a, three weeks after application
Procedure, shortened: as §3

giant foxtail [22] = test: as above; details: dose 6.3 g/a, three weeks after application
Procedure, shortened: as §3

beadstraw = test: as above; details: dose 6.3 g/a, three weeks after application
Procedure, shortened: as §3

velvetleaf [23] = test: as above; details: dose 6.3 g/a, three weeks after application
Procedure, shortened: as §3

large crabgrass [24] = test: as above; details: dose 6.3 g/a, three weeks after application
Procedure, shortened: as §3

common chickweed [25] = test: as above; details: dose 6.3 g/a, three weeks after application
Procedure, shortened: as §3

redroot pigweed [26] = test: as above; details: dose 6.3 g/a, three weeks after application
Procedure, shortened: as §3

water foxtail [27] = test: as above; details: dose 6.3 g/a, three weeks after application
Procedure, shortened: as §3

bulrush [28] = test: Test Example 1: herbicidal effects in preemergence treatment under submerged conditions; details: dose 2.52 g/a
Procedure, shortened: (§4)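 Score 0–5 by mortality (5: ≥90%; 0: <5%), read 3 weeks post-application. Paddy-type cups: alluvial soil under 4 cm water, weeds seeded plus transplanted 2.5-leaf rice; diluted EC dosed onto water surface same day as sowing, g/a basis; greenhouse 25 to 30° C.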

barnyardgrass [29] = test: as above; details: dose 2.52 g/a
Procedure, shortened: as §4

ducksalad [30] = test: as above; details: dose 2.52 g/a
Procedure, shortened: as §4

SMILES	B: bulrush, herbicidal effect (evaluation scale 0-5) (bulrush [1])	A: barnyardgrass, herbicidal effect (evaluation scale 0-5) (barnyardgrass [2])	C: ducksalad, herbicidal effect (evaluation scale 0-5) (ducksalad [3])	M: posumbu knotweed, herbicidal effect (evaluation scale 0-5) (posumbu knotweed [4])	H: Italian ryegrass, herbicidal effect (evaluation scale 0-5) (Italian ryegrass [5])	A: barnyardgrass, herbicidal effect (evaluation scale 0-5) (barnyardgrass [6])	L: common lambsquater, herbicidal effect (evaluation scale 0-5) (common lambsquater [7])	F: wild oat, herbicidal effect (evaluation scale 0-5) (wild oat [8])	J: common ragweed, herbicidal effect (evaluation scale 0-5) (common ragweed [9])	E: giant foxtail, herbicidal effect (evaluation scale 0-5) (giant foxtail [10])	I: velvetleaf, herbicidal effect (evaluation scale 0-5) (velvetleaf [11])	D: large crabgrass, herbicidal effect (evaluation scale 0-5) (large crabgrass [12])	N: common chickweed, herbicidal effect (evaluation scale 0-5) (common chickweed [13])	K: redroot pigweed, herbicidal effect (evaluation scale 0-5) (redroot pigweed [14])	G: water foxtail, herbicidal effect (evaluation scale 0-5) (water foxtail [15])	M: posumbu knotweed, herbicidal effect (posumbu knotweed [16])	H: Italian ryegrass, herbicidal effect (Italian ryegrass [17])	A: barnyardgrass, herbicidal effect (barnyardgrass [18])	L: common lambsquater, herbicidal effect (common lambsquater [19])	F: wild oat, herbicidal effect (wild oat [20])	also measured
CC1OCCN(Cc2ccccc2NS(=O)(=O)C(F)(F)F)C1=O (centres unmarked) [Compound I-4, 2-methyl-4-(2-trifluoromethanesulfonylaminobenzyl)-1,4-oxazinan-3-one]	5 (mortality of 90% or above (nearly complete death))	5 (mortality of 90% or above (nearly complete death))	5 (mortality of 90% or above (nearly complete death))	4 (mortality of at least 70% and less than 90%)	3 (mortality of at least 40% and less than 70%)	4 (mortality of at least 70% and less than 90%)	5 (mortality of 90% or above (nearly complete death))	0 (mortality of less than 5% (almost ineffective))	5 (mortality of 90% or above (nearly complete death))	3 (mortality of at least 40% and less than 70%)	4 (mortality of at least 70% and less than 90%)	5 (mortality of 90% or above (nearly complete death))	5 (mortality of 90% or above (nearly complete death))	4 (mortality of at least 70% and less than 90%)	5 (mortality of 90% or above (nearly complete death))	3 (mortality of at least 40% and less than 70%)	2 (mortality of at least 20% and less than 40%)	5 (mortality of 90% or above (nearly complete death))	4 (mortality of at least 70% and less than 90%)	0 (mortality of less than 5% (almost ineffective))	J: common ragweed, herbicidal effect (common ragweed [21]): 4 (mortality of at least 70% and less than 90%); E: giant foxtail, herbicidal effect (giant foxtail [22]): 4 (mortality of at least 70% and less than 90%); O: beadstraw, herbicidal effect (beadstraw): 4 (mortality of at least 70% and less than 90%); I: velvetleaf, herbicidal effect (velvetleaf [23]): 5 (mortality of 90% or above (nearly complete death)); D: large crabgrass, herbicidal effect (large crabgrass [24]): 5 (mortality of 90% or above (nearly complete death)); N: common chickweed, herbicidal effect (common chickweed [25]): 4 (mortality of at least 70% and less than 90%); K: redroot pigweed, herbicidal effect (redroot pigweed [26]): 3 (mortality of at least 40% and less than 70%); G: water foxtail, herbicidal effect (water foxtail [27]): 5 (mortality of 90% or above (nearly complete death)); B: bulrush, herbicidal effect (evaluation scale 0-5) (bulrush [28]): 5 (mortality of 90% or above (nearly complete death)); A: barnyardgrass, herbicidal effect (evaluation scale 0-5) (barnyardgrass [29]): 5 (mortality of 90% or above (nearly complete death)); C: ducksalad, herbicidal effect (evaluation scale 0-5) (ducksalad [30]): 5 (mortality of 90% or above (nearly complete death))
O=C1COCCN1Cc1ccccc1NS(=O)(=O)C(F)(F)F [Compound I-1, 4-(2-trifluoromethanesulfonylaminobenzyl)-1,4-oxazinan-3-one]	5 (mortality of 90% or above (nearly complete death))	5 (mortality of 90% or above (nearly complete death))	5 (mortality of 90% or above (nearly complete death))	5 (mortality of 90% or above (nearly complete death))	5 (mortality of 90% or above (nearly complete death))	5 (mortality of 90% or above (nearly complete death))	5 (mortality of 90% or above (nearly complete death))	4 (mortality of at least 70% and less than 90%)	4 (mortality of at least 70% and less than 90%)	5 (mortality of 90% or above (nearly complete death))	5 (mortality of 90% or above (nearly complete death))	5 (mortality of 90% or above (nearly complete death))	5 (mortality of 90% or above (nearly complete death))	5 (mortality of 90% or above (nearly complete death))	5 (mortality of 90% or above (nearly complete death))	5 (mortality of 90% or above (nearly complete death))	5 (mortality of 90% or above (nearly complete death))	5 (mortality of 90% or above (nearly complete death))	5 (mortality of 90% or above (nearly complete death))	3 (mortality of at least 40% and less than 70%)	J: common ragweed, herbicidal effect (common ragweed [21]): 4 (mortality of at least 70% and less than 90%); E: giant foxtail, herbicidal effect (giant foxtail [22]): 5 (mortality of 90% or above (nearly complete death)); O: beadstraw, herbicidal effect (beadstraw): 5 (mortality of 90% or above (nearly complete death)); I: velvetleaf, herbicidal effect (velvetleaf [23]): 5 (mortality of 90% or above (nearly complete death)); D: large crabgrass, herbicidal effect (large crabgrass [24]): 5 (mortality of 90% or above (nearly complete death)); N: common chickweed, herbicidal effect (common chickweed [25]): 4 (mortality of at least 70% and less than 90%); K: redroot pigweed, herbicidal effect (redroot pigweed [26]): 3 (mortality of at least 40% and less than 70%); G: water foxtail, herbicidal effect (water foxtail [27]): 5 (mortality of 90% or above (nearly complete death)); B: bulrush, herbicidal effect (evaluation scale 0-5) (bulrush [28]): 5 (mortality of 90% or above (nearly complete death)); A: barnyardgrass, herbicidal effect (evaluation scale 0-5) (barnyardgrass [29]): 5 (mortality of 90% or above (nearly complete death)); C: ducksalad, herbicidal effect (evaluation scale 0-5) (ducksalad [30]): 5 (mortality of 90% or above (nearly complete death))
